{
  "source": "patent US11850257B2",
  "about": "“Method for enhancing beta-adrenergic response” (Saganatura EHF., priority 2019, dated 2023)",
  "key": {"[1]": {"test_system": "β-adrenergic receptors in porcine detrusors", "assay": "Contraction of potassium-contracted pig detrusor muscle strips in organ baths, relaxation by adrenaline and desensitization", "description": "Bladders were obtained from freshly slaughtered pigs and placed in cold Krebs solution (composition, mM: sodium chloride 119, potassium chloride 4.6, sodium bicarbonate 15, calcium chloride 1.5, magnesium chloride 1.2, sodium dihydrogen phosphate 1.2, glucose was 1.98 g/L) which had been gassed by 5% CO2 and put on ice. Subsequently four adjacent strips were cut from the detrusor (typically 2 mm wide and 20 mm long). In each case, four strips were cut, one of which served as a control. The tissues were mounted in a 100-mL organ bath containing sodium Krebs solution, which was maintained at 37° C. and continuously gassed with 95% O2 and 5% CO2. The strips were placed under a tension of ≈1 g and allowed to equilibrate for 60 minutes, during which the bath was changed three times. The muscle contraction was recorded by a transducer. The muscle strips were then contracted by addition of potassium up to 50 mM and allowed to equilibrate.\nAbout 40 minutes after addition of potassium, cnidimoside A was given to the organ baths. Cnidimoside A was isolated from Angelica archangelica leaf by boiling the dried leaf in water, extracting the water phase by ethyl acetate and subjecting the resulting organic phase to silica acid chromatography column. Cnidimoside A is eluted by 10% methanol in chloroform after washing the column with ethyl acetate and chloroform. The cnidimoside A rich fractions were recrystallized in methanol.\nThe muscle strip in the fourth organ bath (D in FIG. 1) received the same amount of DMSO but no cnidimoside A. About 20 and 30 minutes later (see FIG. 1, times 9 and 10) adrenaline was added to all organ baths, resulting in 0.4 (time 9) and 1.2 μM (time 10) final concentration, respectively.\nAbout 75 minutes after addition of potassium, cnidimoside A dissolved in DMSO was added to three organ baths (E-G, time-10 in FIG. 2), the fourth receiving the same amount of DMSO (bottom graph (H) in FIG. 2). Fifteen minutes after the addition of cnidimoside A, adrenaline was added to all baths, to a final concentration of 2 μM (time 11 in FIG. 2). In the absence of cnidimoside A the muscle strip relaxed for about 15 minutes, but then started contracting again, reaching the same level of contraction about 50 minutes after the addition of adrenaline."}, "[2]": {"test_system": "mice", "conditions": "100 mg/kg daily, 30 days; cited from earlier work"}, "[3]": {"test_system": "mice", "assay": "Mouse toxicity experiment, Angelica archangelica water-extract mixed in food for 6 months", "format": "in vivo", "conditions": "daily consumption of cnidimoside A 3.35 mg/kg (calculated from extract content 0.15%)", "experimental": "In a mouse experiment, we fed mice with about […] Angelica archangelica water-extract (mixed in food) daily for 6 months. Assuming the mice to be on average 23 g and cnidimoside A content in the extract to be 0.15%, this means that the daily consumption of cnidimoside A was 3.35 mg/kg."}, "[4]": {"assay": "Water solubility", "format": "physicochemical"}},
  "data": [
    {"smiles": "C/C(=C/Cc1c(O)cc2oc(C)cc(=O)c2c1O)CO[C@@H]1O[C@H](CO)[C@@H](O)[C@H](O)[C@H]1O", "note": "[cnidimoside A, 5,7-dihydroxy-2-methyl-6-[(Z)-3-methyl-4-[(2R,3R,4S,5S,6R)-3,4,5-trihydroxy-6-(hydroxymethyl)oxan-2-yl]oxybut-2-enyl]chromen-4-one]", "values": [
      {"measurement": "Desensitization of the relaxation response to adrenaline", "setting": "[1]; 13 μM cnidimoside A (bath C), adrenaline 0.4 and 1.2 μM, Experiment I", "result": "occurred slowly"},
      {"measurement": "Desensitization of the relaxation response to adrenaline", "setting": "[1]; 38 μM cnidimoside A (bath B), adrenaline 0.4 and 1.2 μM, Experiment I", "result": "not observed at all"},
      {"measurement": "Desensitization of the relaxation response to adrenaline", "setting": "[1]; 112 μM cnidimoside A (bath A), adrenaline 0.4 and 1.2 μM, Experiment I", "result": "not observed at all"},
      {"measurement": "Desensitization of the relaxation response to adrenaline", "setting": "[1]; 200 μM cnidimoside A, adrenaline 2 μM, Experiment II", "result": "occurs much slower"},
      {"measurement": "Repression of desensitization across doses", "setting": "[1]; 13, 38 and 112 μM cnidimoside A vs DMSO control, Experiment I", "result": "repressed dose-dependently"},
      {"measurement": "Effect on the weight of body, liver, spleen or thymus", "setting": "[2]", "result": "without affecting"},
      {"measurement": "Toxic effect", "setting": "[3]", "result": "No toxic effect"},
      {"measurement": "Water solubility", "setting": "[4]", "result": "highly water soluble"}
    ]}
  ]
}
